Experimental data: patent US8383637B2, “2-amino-quinazoline derivatives useful as inhibitors of β-secretase (BACE)” (Jansssen Pharmaceutica N.V., priority 2004, dated 2013)

Target: T1, β-secretase(BACE) (Homo sapiens, UniProt P56817)
T1 construct: purchased Panvera
Test: BACE FS1% Inhibition Assay
Format: biochemical
Conditions: FS1 substrate
Procedure: BACE FS1% Inhibition Assay The following reagents were used in this assay: sodium acetate, PEG8000 (Sigma), DMSO, HEPES, FS1 substrate [[…]] […] The FS1-substrate stock solution was prepared in DMSO as a 10 mg/mL solution. The FS1-substrate working solution was prepared by diluting the 10 mg/mL stock solution with substrate assay buffer to a final concentration of 300 μg/mL. The β-secretase (BACE) working solution was prepared by diluting a 0.83 mg/mL BACE stock solution with enzyme assay buffer to a final concentration of 4 μg/mL. Test compounds were dissolved in DMSO to 10 mM. […] The screening procedure for this assay was as follows: 15 μL of BACE working solution was pipetted into each well of a 96-well plate. To each well was then pipetted 2 μL of test compound at the selected concentration. Test compound and BACE were then mixed with a pipettor and incubated for 20 min at room temperature. To each well was then added 10 μL of the FS1 substrate working solution. The plates were then incubated for 1 hour at room temperature. […] The procedure for the blank was as follows. 15 μL of assay buffer was pipetted into each well to be used as a blank control. To each well was then added 2 μL of vehicle and 10 μL of FS1-substrate working solution. The plates were then incubated for 1 hour at room temperature. […] The procedure for the positive control was as follows: 15 μL of BACE working solution was pipetted into each well to be used as a positive control. To each well was then pipetted 2 μL of vehicle. Vehicle and BACE were then mixed with a pipettor and incubated for 20 min at room temperature. To each well was then added 10 μL of the FS1 substrate working solution. The plates were then incubated for 1 hour at room temperature. […] For test compounds, % inhibition was determined at each concentration as follows: [formula]

T1 sequence (P56817 46-501): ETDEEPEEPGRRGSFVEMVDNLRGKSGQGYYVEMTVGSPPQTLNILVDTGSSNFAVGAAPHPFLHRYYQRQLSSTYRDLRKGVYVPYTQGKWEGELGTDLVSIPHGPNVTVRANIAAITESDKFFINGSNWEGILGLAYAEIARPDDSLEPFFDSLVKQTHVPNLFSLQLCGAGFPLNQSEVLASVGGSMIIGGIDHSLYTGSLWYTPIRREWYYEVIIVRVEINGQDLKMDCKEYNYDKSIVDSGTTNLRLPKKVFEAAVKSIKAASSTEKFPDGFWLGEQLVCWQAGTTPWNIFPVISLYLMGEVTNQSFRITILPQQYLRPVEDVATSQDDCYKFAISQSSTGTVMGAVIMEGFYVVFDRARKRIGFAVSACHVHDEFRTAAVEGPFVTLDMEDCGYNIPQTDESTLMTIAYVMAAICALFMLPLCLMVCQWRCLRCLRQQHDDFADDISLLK

Structure (SMILES) | % Inhibition (FS) 0.3 μM (0.3 μM test compound) | % Inhibition (FS) 1 μM (1 μM test compound) | % Inhibition (FS) 3 μM (3 μM test compound) | inhibition at 0.3 µM (0.3 μM test compound, read-out: % Inhibition (FS) 0.3 μM) | inhibition at 1 µM (1 μM test compound, read-out: % Inhibition (FS) 1 μM) | inhibition at 3 µM (3 μM test compound, read-out: % Inhibition (FS) 3 μM)
CSc1ccccc1-c1ccc2c(c1)CN(Cc1cccc(C(=O)N(C)C3CCCCC3)c1)C(N)=N2 [Compound 322] | <30% | <30% | 95% | – | – | –
CC(=O)c1ccccc1-c1ccc2c(c1)CN(Cc1cccc(C(=O)N(C)C3CCCCC3)c1)C(N)=N2 [Compound 323] | <30% | <30% | 45% | – | – | –
CN(C(=O)c1cccc(CN2Cc3cc(-c4ccccc4Oc4ccccc4)ccc3N=C2N)c1)C1CCCCC1 [Compound 326] | <30% | 35% | 79% | – | – | –
CN(C(=O)c1cccc(CN2Cc3cc(-c4ccccc4OCc4ccccc4)ccc3N=C2N)c1)C1CCCCC1 [Compound 327] | <30% | <30% | 48% | – | – | –
CC(c1ccccc1)c1ccc2c(c1)CN(Cc1cccc(C(=O)N(C)C3CCCCC3)c1)C(N)=N2 (stereo not drawn) [Compound 332] | <30% | <30% | <30% | – | – | –
NC1=Nc2ccc(Oc3ccccc3)cc2CN1C(CC(=O)NC1CC2CCC1C2)C1CCCCC1 (stereo not drawn) [Compound 400, 3-(2-Amino-6-phenoxy-4H-quinazolin-3-yl)-N-bicyclo[2.2.1]hept-2-yl-3-cyclohexyl-propionamide] | – | – | – | < 30% | < 30% | 94%
CC(C)C(CC(=O)NC1CCCCC1)N1Cc2cc(Oc3ccccc3)ccc2N=C1N (stereo not drawn) [Compound 401] | <30% | <30% | 52% | – | – | –
CC(C)C(CC(=O)NC1C2CC3CC(C2)CC1C3)N1Cc2cc(Oc3ccccc3)ccc2N=C1N (stereo not drawn) [Compound 402] | <30% | 53% | 99% | – | – | –
NC1=Nc2ccc(Oc3ccccc3)cc2CN1CCCNC1CCCCC1 [Compound 403] | <30% | <30% | 66% | – | – | –
Cc1cccc(Sc2ccc3c(c2)CN(Cc2cccc(C(=O)N(C)C4CCCCC4)c2)C(N)=N3)c1 [Compound 405] | 43% | 106% | 118% | – | – | –
CCc1ccccc1Sc1ccc2c(c1)CN(Cc1cccc(C(=O)N(C)C3CCCCC3)c1)C(N)=N2 [Compound 406] | <30% | <30% | 50% | – | – | –
CC(C)c1ccc(Sc2ccc3c(c2)CN(Cc2cccc(C(=O)N(C)C4CCCCC4)c2)C(N)=N3)cc1 [Compound 407] | <30% | <30% | 48% | – | – | –
Cc1ccc(Sc2ccc3c(c2)CN(Cc2cccc(C(=O)N(C)C4CCCCC4)c2)C(N)=N3)cc1C [Compound 408] | <30% | 34% | 95% | – | – | –
Cc1cc(C)cc(Sc2ccc3c(c2)CN(Cc2cccc(C(=O)N(C)C4CCCCC4)c2)C(N)=N3)c1 [Compound 409] | <30% | <30% | 72% | – | – | –
COc1ccc(Sc2ccc3c(c2)CN(Cc2cccc(C(=O)N(C)C4CCCCC4)c2)C(N)=N3)cc1 [Compound 410] | <30% | 39% | 50% | – | – | –
COc1ccc(Sc2ccc3c(c2)CN(Cc2cccc(C(=O)N(C)C4CCCCC4)c2)C(N)=N3)cc1OC [Compound 411] | <30% | <30% | 55% | – | – | –
COc1ccccc1Sc1ccc2c(c1)CN(Cc1cccc(C(=O)N(C)C3CCCCC3)c1)C(N)=N2 [Compound 412] | <30% | <30% | 49% | – | – | –
CSc1ccc(Sc2ccc3c(c2)CN(Cc2cccc(C(=O)N(C)C4CCCCC4)c2)C(N)=N3)cc1 [Compound 413] | <30% | <30% | 53% | – | – | –
CN(C(=O)c1cccc(CN2Cc3cc(Sc4cccc5ccccc45)ccc3N=C2N)c1)C1CCCCC1 [Compound 414] | <30% | <30% | 27% | – | – | –
CN(C(=O)c1cccc(CN2Cc3cc(Sc4ccc5ccccc5c4)ccc3N=C2N)c1)C1CCCCC1 [Compound 415] | <30% | <30% | 63% | – | – | –

Structure (SMILES) | % Inhibition (FS) 0.3 μM (0.3 μM test compound) | % Inhibition (FS) 1 μM (1 μM test compound) | % Inhibition (FS) 3 μM (3 μM test compound) | inhibition at 0.3 µM (0.3 μM test compound, read-out: % Inhibition (FS) 0.3 μM) | inhibition at 1 µM (1 μM test compound, read-out: % Inhibition (FS) 1 μM) | inhibition at 3 µM (3 μM test compound, read-out: % Inhibition (FS) 3 μM)
CNC(=O)c1ccccc1Sc1ccc2c(c1)CN(Cc1cccc(C(=O)N(C)C3CCCCC3)c1)C(N)=N2 [Compound 416] | <30% | <30% | −3% | – | – | –
CC(=O)Nc1ccc(Sc2ccc3c(c2)CN(Cc2cccc(C(=O)N(C)C4CCCCC4)c2)C(N)=N3)cc1 [Compound 417] | <30% | <30% | 78% | – | – | –
CN(C(=O)CCC(c1ccc(-c2ccccc2)cc1)N1Cc2cc(Oc3ccccc3)ccc2N=C1N)C1CCCCC1 (stereo not drawn) [Compound 420] | <30% | <30% | 53% | – | – | –
NC1=Nc2ccc(Oc3ccccc3)cc2CN1CCNCC1CCCCC1 [Compound 427] | <30% | 26% | 62% | – | – | –
CN(CCN1Cc2cc(Oc3ccccc3)ccc2N=C1N)C1CCCCC1 [Compound 429] | <30% | <30% | <30% | – | – | –
COc1cccc(Nc2ccc3c(c2)CN(Cc2cccc(C(=O)N(C)C4CCCCC4)c2)C(N)=N3)c1 [Compound 433] | <30% | 33% | 88% | – | – | –
COc1ccc(Nc2ccc3c(c2)CN(Cc2cccc(C(=O)N(C)C4CCCCC4)c2)C(N)=N3)cc1 [Compound 434] | <30% | <30% | <30% | – | – | –
Cc1cccc(Nc2ccc3c(c2)CN(Cc2cccc(C(=O)N(C)C4CCCCC4)c2)C(N)=N3)c1 [Compound 435] | <30% | <30% | 85% | – | – | –
CN(C(=O)c1cccc(CN2Cc3cc(Nc4ccc5ccccc5c4)ccc3N=C2N)c1)C1CCCCC1 [Compound 436] | <30% | 37% | 50% | – | – | –
CN(C(=O)c1cccc(CN2Cc3cc(Nc4ccc(C5CCCCC5)cc4)ccc3N=C2N)c1)C1CCCCC1 [Compound 437] | <30% | <30% | 38% | – | – | –
CN(C)c1ccc(Nc2ccc3c(c2)CN(Cc2cccc(C(=O)N(C)C4CCCCC4)c2)C(N)=N3)cc1 [Compound 438] | <30% | <30% | <30% | – | – | –
CN(C(=O)c1cccc(CN2Cc3cc(Nc4ccc(N5CCOCC5)cc4)ccc3N=C2N)c1)C1CCCCC1 [Compound 439] | <30% | <30% | <30% | – | – | –
CCOc1cccc(Nc2ccc3c(c2)CN(Cc2cccc(C(=O)N(C)C4CCCCC4)c2)C(N)=N3)c1 [Compound 440] | <30% | 35% | 72% | – | – | –
CN(C(=O)c1cccc(CN2Cc3cc(Nc4ccc5c(c4)OCO5)ccc3N=C2N)c1)C1CCCCC1 [Compound 441] | <30% | 29% | 48% | – | – | –
CSc1ccc(Nc2ccc3c(c2)CN(Cc2cccc(C(=O)N(C)C4CCCCC4)c2)C(N)=N3)cc1 [Compound 442] | <30% | 58% | 101% | – | – | –
NC1=Nc2ccc(Oc3ccccc3)cc2CN1Cc1cccc(C(=O)N2CCCCC2)c1 [Compound 443] | <30% | 39% | 67% | – | – | –
NC1=Nc2ccc(Oc3ccccc3)cc2CN1Cc1cccc(C(=O)NC2CCCCC2)c1 [Compound 451] | <30% | <30% | <30% | – | – | –
NC1=Nc2ccc(Oc3ccccc3)cc2CN1C(CCCC(=O)N1CCCCC1)CCC(=O)N1CCCCC1 (stereo not drawn) [Compound 452] | <30% | 42% | 78% | – | – | –
CN(C(=O)c1ccccc1CN1Cc2cc(Oc3ccccc3)ccc2N=C1N)C1CCCCC1 [Compound 463] | <30% | <30% | <30% | – | – | –
